Earlier results in paper PMC9344054, “Studies on Chemical Characterization of Ginkgo Amillaria Oral Solution and Its Drug–Drug Interaction With Piceatannol 3′-O-β-D-Glucopyranoside for Injection” (Frontiers in Pharmacology, 2022).

What was measured:
[1] = test system: most human UGTs, including UGT1A1, 1A3, 1A4, 1A6, 1A7, 1A8, and 1A9; parameters: method as in Lv et al., 2018; details: UGT1A1, 1A3, 1A4, 1A6, 1A7, 1A8, 1A9; ref Lv et al., 2018; cited from earlier work
[2] = test system: breast cancer resistance protein; parameters: method as in An et al., 2011; Palatini and De Martin, 2016; details: ref An et al., 2011; Palatini and De Martin, 2016; cited from earlier work
P-glycoprotein = test system: P-glycoprotein; parameters: method as in An et al., 2011; Palatini and De Martin, 2016; details: previous studies; ref An et al., 2011; Palatini and De Martin, 2016; cited from earlier work
human hepatic UGT1A4 = test system: human hepatic UGT1A4; parameters: method as in Cao et al., 2017; details: in vitro; ref Cao et al., 2017; cited from earlier work
human hepatic UGT1A1 = test system: human hepatic UGT1A1; parameters: method as in Cao et al., 2017; details: in vitro; ref Cao et al., 2017; cited from earlier work
[3] = parameters: method as in Zhao et al., 2006; details: pretreatment of GBE 100 mg kg−1 for 10 days; ref Zhao et al., 2006; cited from earlier work
UGT1A6 = test system: UGT1A6; parameters: method as in Zhang et al., 2021; details: ref Zhang et al., 2021; cited from earlier work
UGT1A3 = test system: UGT1A3; parameters: method as in Zhang et al., 2021; details: ref Zhang et al., 2021; cited from earlier work
UGT1A9 = test system: UGT1A9; parameters: method as in Zhang et al., 2021; details: ref Zhang et al., 2021; cited from earlier work
UGT1A1 = test system: UGT1A1; parameters: method as in Zhang et al., 2021; details: ref Zhang et al., 2021; cited from earlier work
[4] = parameters: method as in Fan et al., 2009; details: ten healthy male volunteers, ref Fan et al., 2009, cited from earlier work

O=c1cc(-c2ccc(O)c(-c3c(O)cc(O)c4c(=O)cc(-c5ccc(O)cc5)oc34)c2)oc2cc(O)cc(O)c12 [amentoflavone]
inhibition toward most human UGTs [1]: strong inhibition

O=c1c(O)c(-c2ccc(O)cc2)oc2cc(O)cc(O)c12 [kaempferol]
inhibition of breast cancer resistance protein [2]: inhibitor | inhibition of the P-glycoprotein-mediated efflux of ritonavir (P-glycoprotein): remarkable inhibition

O=c1cc(-c2ccc(O)c(O)c2)oc2cc(O)cc(O)c12 [luteolin]
inhibition of human hepatic UGT1A4 (human hepatic UGT1A4): inhibited | inhibition of human hepatic UGT1A1 (human hepatic UGT1A1): inhibited

CC(C)NCC(O)COc1cccc2ccccc12 (stereo not shown) [propranolol]
change of AUC of propranolol [3]: significantly reduce | change of C max of propranolol [3]: significantly reduce

O=c1c(O)c(-c2ccc(O)c(O)c2)oc2cc(O)cc(O)c12 [quercetin]
inhibition of UGT1A6 (UGT1A6): weak inhibitor | inhibition of UGT1A3 (UGT1A3): moderate inhibitor | inhibition of UGT1A9 (UGT1A9): strong inhibitor | inhibition of UGT1A1 (UGT1A1): moderate inhibitor | inhibition of human hepatic UGT1A4 (human hepatic UGT1A4): inhibited | inhibition of human hepatic UGT1A1 (human hepatic UGT1A1): inhibited

CC(C)(C)NCC(O)COc1ccc(NC(=O)NC2CCCCC2)cc1 (stereo not shown) [talinolol]
increase of AUC0-24 of talinolol ([4]; repeated ingestion of GBE): 26% | increase of C max of talinolol ([4]; repeated ingestion of GBE): 36% | effect on pharmacokinetics of talinolol ([4]; single dose of GBE orally): did not affect
